Test systems include EKVX NSCLC; HCC-2998 colon; HOP-62 NSCLC; HOP-92 NSCLC; MALME-3M melanoma; NCI-H522 lung; OVCAR-4 ovarian; OVCAR-5 ovarian; RPMI-8226 leukemia; NCI-H226 lung.
What all share (test): NCI-60 cell line screen, 48 h

Values joined by “and” are separate entries in the source; they are usually repeats but may differ in a detail not shown here. Identical values can stand only once.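 Five concentrations, 48 hours, 96-well plates. The concentration for 50% growth inhibition is given as GI50. TGI is the concentration that stops growth completely.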

On to `Fc1ccc(Nc2ccc3cc(OCCCN4CCOCC4)ccc3n2)cc1F`, for which the GI50 was 5.86 µM with EKVX NSCLC; 2.22 µM with HCC-2998 colon; 4.54 µM with HOP-62 NSCLC; 2.63 µM in the experiment on HOP-92 NSCLC; 2.25 µM with MALME-3M melanoma; 2.15 µM in the experiment with NCI-H522 lung. Moreover, the results for the GI50 in the experiment with OVCAR-4 ovarian, in the experiment with OVCAR-5 ovarian and with RPMI-8226 leukemia were 4.14 µM, 3.02 µM and 6.96 µM, respectively. Also, the TGI in the experiment on EKVX NSCLC was above 100 µM; in the experiment with HCC-2998 colon, 4.42 µM; with HOP-62 NSCLC, 45.9 µM; in the experiment with HOP-92 NSCLC, 7.9 µM; in the experiment with MALME-3M melanoma it was 7.74 µM; with NCI-H522 lung, 5.37 µM. Further, the TGI in the experiment on OVCAR-4 ovarian, in the experiment with OVCAR-5 ovarian and with RPMI-8226 leukemia was above 100 µM in each case.

As to `N#Cc1c(N)nc(N2CCOCC2)c(C#N)c1-c1cccc(O)c1`, the GI50 in the experiment on EKVX NSCLC was 73.5 µM; in the experiment with HCC-2998 colon, 68.5 µM; in the experiment on HOP-62 NSCLC, 78.3 µM; in the experiment with HOP-92 NSCLC, 37.6 µM; in the experiment on NCI-H226 lung, above 100 µM; in the experiment with OVCAR-4 ovarian it was 26.5 µM. Moreover, the GI50 with OVCAR-5 ovarian was above 100 µM; in the experiment on RPMI-8226 leukemia it was 48.7 µM. Also, the TGI with EKVX NSCLC, in the experiment on HCC-2998 colon, in the experiment with HOP-62 NSCLC, in the experiment with HOP-92 NSCLC, in the experiment on NCI-H226 lung and in the experiment with OVCAR-4 ovarian was above 100 µM in each case. The TGI in the experiment on OVCAR-5 ovarian and in the experiment on RPMI-8226 leukemia was above 100 µM in each case.

For the compound `COc1cc(/C=C2\C[C@H]3[C@@H]4CC=C5C[C@@H](OC(C)=O)CC[C@]5(C)[C@H]4CC[C@]3(C)[C@H]2OC(C)=O)ccc1OCCCn1ccnc1`, the GI50 was 9.49 µM in the experiment on EKVX NSCLC; 9.47 µM in the experiment on HCC-2998 colon; 11.3 µM with HOP-62 NSCLC; 9.45 µM in the experiment with HOP-92 NSCLC; 7.78 µM in the experiment on NCI-H226 lung; 12.8 µM in the experiment on NCI-H522 lung. Moreover, the GI50 with OVCAR-5 ovarian is 12.7 µM; in the experiment on RPMI-8226 leukemia, 0.515 µM. The TGI in the experiment on EKVX NSCLC is 20 µM; with HCC-2998 colon, 17.7 µM; in the experiment on HOP-62 NSCLC, 19.5 µM; in the experiment on HOP-92 NSCLC it was 20 µM; with NCI-H226 lung, 24.6 µM; in the experiment with NCI-H522 lung, above 36.3 µM. Moreover, the TGI with OVCAR-5 ovarian amounted to 33.6 µM; in the experiment on RPMI-8226 leukemia, 1.77 µM.

As for `O=C1NC(=O)[C@H]2C3C=CC([C@@H]12)[C@@H]1C(=O)NC(=O)[C@H]31`, the TGI in the experiment on EKVX NSCLC, with HCC-2998 colon, in the experiment with HOP-62 NSCLC, in the experiment on HOP-92 NSCLC, in the experiment with MALME-3M melanoma and with NCI-H226 lung was above 100 µM in each case. Moreover, the TGI in the experiment with NCI-H522 lung, in the experiment on OVCAR-5 ovarian and in the experiment on RPMI-8226 leukemia was above 100 µM throughout.

Regarding `Cc1cc2c(cc1C)[n+](=O)c(C(=O)c1cccs1)c(C(F)(F)F)n2[O-]`, the GI50 was 0.915 µM and 1.17 µM with EKVX NSCLC; 6.86 µM and 2.08 µM in the experiment with HCC-2998 colon; 14.6 µM and 2.68 µM with HOP-62 NSCLC; 1.53 µM and 5.5 µM in the experiment on HOP-92 NSCLC; 4.06 µM with NCI-H226 lung; 2.29 µM and 2.17 µM with NCI-H522 lung. Also, the GI50 is 6.44 µM and 3.56 µM in the experiment on OVCAR-4 ovarian; 16.7 µM and 4.47 µM in the experiment with OVCAR-5 ovarian; 1.04 µM and 2.84 µM with RPMI-8226 leukemia. The TGI in the experiment on EKVX NSCLC was 3.22 µM and 4.15 µM; in the experiment with HCC-2998 colon, 20.9 µM and 5.24 µM; in the experiment on HOP-62 NSCLC, 50 µM; in the experiment on HOP-92 NSCLC, 10.6 µM and 37.9 µM; in the experiment on NCI-H226 lung, 50 µM; in the experiment with NCI-H522 lung, 15.5 µM and 8.26 µM. In addition, the TGI with OVCAR-4 ovarian is 50 µM and 10.7 µM; in the experiment on OVCAR-5 ovarian, 50 µM and 17.4 µM; in the experiment with RPMI-8226 leukemia, 8.01 µM and 30.6 µM.

For the compound `O=c1[nH]cnc2c1nnn2[C@@H]1O[C@H](CO)[C@@H](O)[C@H]1O`, the GI50 is 4.33 µM with HCC-2998 colon; 9.22 µM with HOP-62 NSCLC; 2.33 µM with HOP-92 NSCLC; 30.1 µM in the experiment on NCI-H226 lung; 4.55 µM in the experiment on NCI-H522 lung; 1.89 µM in the experiment with OVCAR-4 ovarian. For the same compound, the GI50 in the experiment with OVCAR-5 ovarian is 19.3 µM; in the experiment on RPMI-8226 leukemia it was 2.68 µM. In addition, the TGI is above 100 µM in the experiment on HCC-2998 colon; above 100 µM in the experiment on HOP-62 NSCLC; above 100 µM in the experiment on HOP-92 NSCLC; above 100 µM with NCI-H226 lung; 63.4 µM in the experiment with NCI-H522 lung; above 100 µM in the experiment on OVCAR-4 ovarian. For the same compound, the results for the TGI with OVCAR-5 ovarian and in the experiment with RPMI-8226 leukemia were above 100 µM and 25 µM, respectively.

On to `CC1(C)CC2=NOS3=C2C(=NO3)C1c1ccccn1` (stereo unspecified), for which the TGI with EKVX NSCLC is above 100 µM; in the experiment with HCC-2998 colon, above 100 µM; in the experiment with HOP-62 NSCLC it was above 100 µM; in the experiment with HOP-92 NSCLC it was above 100 µM; in the experiment with MALME-3M melanoma, above 100 µM; in the experiment with NCI-H522 lung it was 90.2 µM. Moreover, the TGI in the experiment with OVCAR-4 ovarian, in the experiment on OVCAR-5 ovarian and in the experiment on RPMI-8226 leukemia was above 100 µM in each case.

Take `Cc1cc(Nc2nc(N3CCOCC3)nc3ccccc23)n[nH]1`: the GI50 in the experiment with HCC-2998 colon is 24.8 µM; in the experiment with HOP-62 NSCLC, 6.22 µM; with HOP-92 NSCLC, 4.22 µM; with MALME-3M melanoma it was 44.2 µM; with NCI-H226 lung, 4.13 µM; with NCI-H522 lung, 17.4 µM. Also, the GI50 was 7.26 µM in the experiment with OVCAR-4 ovarian, 25.4 µM in the experiment on OVCAR-5 ovarian and 22.5 µM in the experiment with RPMI-8226 leukemia. Besides, the TGI is above 100 µM in the experiment with HCC-2998 colon; above 100 µM in the experiment with HOP-62 NSCLC; 62.8 µM with HOP-92 NSCLC; above 100 µM with MALME-3M melanoma; 45.2 µM with NCI-H226 lung; above 100 µM with NCI-H522 lung. For the same compound, the TGI in the experiment on OVCAR-4 ovarian, in the experiment with OVCAR-5 ovarian and in the experiment on RPMI-8226 leukemia was above 100 µM each time.

`O=C(CCc1ccc(O)c(O)c1)c1ccc(O)c(O)c1O`: the TGI is 48.4 µM in the experiment on EKVX NSCLC; above 100 µM with HCC-2998 colon; 68.4 µM in the experiment on HOP-92 NSCLC; above 100 µM in the experiment with MALME-3M melanoma; 36.2 µM with NCI-H226 lung; 41.1 µM in the experiment with NCI-H522 lung. Further, the TGI with OVCAR-4 ovarian turned out to be 78.5 µM; in the experiment on OVCAR-5 ovarian, 49.4 µM.

Take `COc1cc(N)ccc1Nc1c2ccccc2nc2ccccc12`: the GI50 in the experiment on HCC-2998 colon is 15.3 µM; with HOP-62 NSCLC it was 9.98 µM; with HOP-92 NSCLC, 4.59 µM; in the experiment with MALME-3M melanoma it was 14.6 µM; in the experiment on NCI-H226 lung, 2.35 µM; with NCI-H522 lung, 17.9 µM. Moreover, the GI50 is 10.6 µM in the experiment on OVCAR-4 ovarian, 15 µM in the experiment with OVCAR-5 ovarian and 5.27 µM in the experiment on RPMI-8226 leukemia. The TGI with HCC-2998 colon was found to be 30.3 µM; in the experiment with HOP-62 NSCLC it was 27.9 µM; in the experiment on HOP-92 NSCLC it was 23 µM; in the experiment with MALME-3M melanoma it was 35.1 µM; with NCI-H226 lung, 10.2 µM; with NCI-H522 lung, 51.3 µM. Further, the TGI with OVCAR-4 ovarian is above 45.6 µM; in the experiment with OVCAR-5 ovarian, 29.9 µM; in the experiment on RPMI-8226 leukemia, above 29.9 µM.

(Values after PubChem BioAssay (NCI).)
